Measured values reported in publication PMC6199744, “Development of Chemical Proteomics for the Folateome and Analysis of the Kinetoplastid Folateome” (ACS Infectious Diseases, 2018).
Like-named read-outs stand apart in the source and are kept apart here.

Columns and labels:
Assay type in all cases: binding
[1] = target: T1, HeLa cell extract proteins (Homo sapiens, UniProt Q9HB71)
T1 construct: endogenous in cells; host or cells: HeLa cell extract

[2] = target: T2, HeLa cell extract proteins (Homo sapiens, UniProt P14868)
T2 construct: endogenous in cells; host or cells: HeLa cell extract
T2 sequence (P14868 1-501): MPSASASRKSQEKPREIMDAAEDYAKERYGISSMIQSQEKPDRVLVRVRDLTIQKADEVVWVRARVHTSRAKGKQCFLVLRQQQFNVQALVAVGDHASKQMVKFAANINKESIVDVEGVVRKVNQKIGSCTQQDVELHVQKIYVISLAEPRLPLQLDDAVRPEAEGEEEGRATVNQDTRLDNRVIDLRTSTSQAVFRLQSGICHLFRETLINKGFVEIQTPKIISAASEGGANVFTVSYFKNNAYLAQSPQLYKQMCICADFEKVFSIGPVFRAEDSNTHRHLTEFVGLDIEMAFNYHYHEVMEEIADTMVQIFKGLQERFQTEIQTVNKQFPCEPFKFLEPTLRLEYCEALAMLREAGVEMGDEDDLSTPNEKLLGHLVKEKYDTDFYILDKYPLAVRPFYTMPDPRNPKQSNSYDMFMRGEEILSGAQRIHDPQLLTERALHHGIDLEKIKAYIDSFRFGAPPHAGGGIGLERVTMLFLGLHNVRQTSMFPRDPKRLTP

[3] = target: T3, HeLa cell extract proteins (Homo sapiens, UniProt O95456)
T3 construct: endogenous in cells; host or cells: HeLa cell extract
T3 sequence (O95456 1-288): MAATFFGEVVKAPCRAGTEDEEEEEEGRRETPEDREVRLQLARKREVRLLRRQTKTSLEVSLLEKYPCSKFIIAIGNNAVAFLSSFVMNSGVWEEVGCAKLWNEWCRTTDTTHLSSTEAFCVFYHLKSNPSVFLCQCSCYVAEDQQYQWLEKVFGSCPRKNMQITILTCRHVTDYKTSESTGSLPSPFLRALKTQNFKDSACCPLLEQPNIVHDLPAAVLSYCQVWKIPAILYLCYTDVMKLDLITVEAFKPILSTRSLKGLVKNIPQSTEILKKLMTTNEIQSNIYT

[4] = target: T4, HeLa cell extract proteins (Homo sapiens, UniProt P14625)
T4 construct: endogenous in cells; host or cells: HeLa cell extract

[5] = target: T5, HeLa cell extract proteins (Homo sapiens, UniProt Q53R41)
T5 construct: endogenous in cells; host or cells: HeLa cell extract
T5 sequence (Q53R41 1-847): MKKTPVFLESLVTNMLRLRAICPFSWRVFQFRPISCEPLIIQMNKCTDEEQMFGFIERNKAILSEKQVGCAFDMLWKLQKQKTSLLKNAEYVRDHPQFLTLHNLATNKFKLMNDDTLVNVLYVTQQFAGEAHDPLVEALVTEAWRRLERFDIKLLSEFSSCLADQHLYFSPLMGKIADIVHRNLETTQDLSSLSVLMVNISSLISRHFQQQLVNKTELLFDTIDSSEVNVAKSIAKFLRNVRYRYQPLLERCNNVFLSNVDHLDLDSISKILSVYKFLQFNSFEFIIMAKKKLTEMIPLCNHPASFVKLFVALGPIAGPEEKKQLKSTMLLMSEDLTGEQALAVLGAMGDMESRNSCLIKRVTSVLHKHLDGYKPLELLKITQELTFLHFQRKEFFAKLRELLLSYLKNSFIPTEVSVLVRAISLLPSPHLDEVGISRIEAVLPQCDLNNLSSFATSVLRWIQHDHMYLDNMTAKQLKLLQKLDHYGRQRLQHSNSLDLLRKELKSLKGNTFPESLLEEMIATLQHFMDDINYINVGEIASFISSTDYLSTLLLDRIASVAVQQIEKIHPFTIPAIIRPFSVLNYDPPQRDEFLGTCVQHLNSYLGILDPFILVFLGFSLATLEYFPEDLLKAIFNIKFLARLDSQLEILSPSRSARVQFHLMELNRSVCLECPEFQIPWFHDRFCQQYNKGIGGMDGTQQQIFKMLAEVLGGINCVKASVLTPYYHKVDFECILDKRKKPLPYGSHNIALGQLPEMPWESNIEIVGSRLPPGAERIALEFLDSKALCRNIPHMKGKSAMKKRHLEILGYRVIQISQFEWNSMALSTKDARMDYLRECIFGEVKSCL

[6] = target: T6, HeLa cell extract proteins (Homo sapiens, UniProt P40939)
T6 construct: endogenous in cells; host or cells: HeLa cell extract

[7] = HeLa, protein CACYBP (ISOFORM 1 OF CALCYCLIN-BINDING PROTEIN)

T4 sequence (P14625 22-803): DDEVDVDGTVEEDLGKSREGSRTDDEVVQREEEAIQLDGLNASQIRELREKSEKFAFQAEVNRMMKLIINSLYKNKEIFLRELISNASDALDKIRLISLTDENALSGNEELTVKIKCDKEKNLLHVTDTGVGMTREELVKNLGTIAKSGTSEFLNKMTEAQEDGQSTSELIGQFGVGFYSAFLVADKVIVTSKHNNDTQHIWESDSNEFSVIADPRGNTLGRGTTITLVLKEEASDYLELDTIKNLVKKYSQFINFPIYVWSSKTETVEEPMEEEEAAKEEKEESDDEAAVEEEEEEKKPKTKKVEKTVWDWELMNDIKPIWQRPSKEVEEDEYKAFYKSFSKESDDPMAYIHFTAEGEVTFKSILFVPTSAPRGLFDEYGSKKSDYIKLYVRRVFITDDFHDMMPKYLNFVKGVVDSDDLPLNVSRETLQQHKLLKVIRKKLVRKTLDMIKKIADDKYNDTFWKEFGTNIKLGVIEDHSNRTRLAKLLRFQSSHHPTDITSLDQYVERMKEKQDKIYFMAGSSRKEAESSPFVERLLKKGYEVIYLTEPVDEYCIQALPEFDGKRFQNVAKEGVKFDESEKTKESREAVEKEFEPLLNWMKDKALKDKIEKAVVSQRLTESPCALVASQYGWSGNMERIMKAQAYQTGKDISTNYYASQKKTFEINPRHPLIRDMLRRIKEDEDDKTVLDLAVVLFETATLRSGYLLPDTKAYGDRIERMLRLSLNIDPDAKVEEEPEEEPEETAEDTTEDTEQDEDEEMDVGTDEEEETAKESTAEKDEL
T1 sequence (Q9HB71 whole entry): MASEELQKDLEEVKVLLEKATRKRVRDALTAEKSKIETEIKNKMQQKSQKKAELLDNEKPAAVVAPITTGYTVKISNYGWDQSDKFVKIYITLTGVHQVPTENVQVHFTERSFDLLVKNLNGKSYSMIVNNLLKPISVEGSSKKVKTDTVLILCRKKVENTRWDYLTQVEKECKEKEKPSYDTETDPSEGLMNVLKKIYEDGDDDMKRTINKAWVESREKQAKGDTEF
T6 sequence (P40939 37-763): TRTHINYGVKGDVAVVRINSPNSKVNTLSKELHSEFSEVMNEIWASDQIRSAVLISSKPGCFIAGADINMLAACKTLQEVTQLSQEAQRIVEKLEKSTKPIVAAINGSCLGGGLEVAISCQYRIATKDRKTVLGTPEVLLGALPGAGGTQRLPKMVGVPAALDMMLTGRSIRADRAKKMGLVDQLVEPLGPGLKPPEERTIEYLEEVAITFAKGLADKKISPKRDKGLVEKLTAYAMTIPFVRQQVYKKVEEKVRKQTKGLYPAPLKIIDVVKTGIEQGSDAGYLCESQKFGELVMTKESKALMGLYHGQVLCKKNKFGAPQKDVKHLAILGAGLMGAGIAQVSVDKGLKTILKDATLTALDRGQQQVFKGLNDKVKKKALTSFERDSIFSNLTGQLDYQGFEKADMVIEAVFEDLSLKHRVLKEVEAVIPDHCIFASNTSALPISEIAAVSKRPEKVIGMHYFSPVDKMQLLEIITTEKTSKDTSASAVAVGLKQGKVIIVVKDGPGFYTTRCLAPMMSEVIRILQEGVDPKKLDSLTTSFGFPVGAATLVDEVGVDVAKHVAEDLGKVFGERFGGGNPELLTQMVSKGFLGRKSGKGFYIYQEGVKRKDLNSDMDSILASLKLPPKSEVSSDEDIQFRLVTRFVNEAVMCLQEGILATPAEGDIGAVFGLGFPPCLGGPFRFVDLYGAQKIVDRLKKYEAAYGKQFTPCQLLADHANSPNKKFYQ

SMILES | fold changes relative to vehicle control [1, 7] | fold changes relative to vehicle control ([2]; HeLa, protein DARS) | fold changes relative to vehicle control ([3]; HeLa, captured protein PSMG1) | fold changes relative to vehicle control ([4]; HeLa, protein HSP90B1) | fold changes relative to vehicle control ([5]; HeLa, protein FASTKD1) | fold changes relative to vehicle control ([6]; HeLa, protein HADHA) | fold changes relative to vehicle control ([1]; protein CACYBP, HeLa) | fold changes relative to vehicle control ([2]; protein DARS, HeLa) | fold changes relative to vehicle control ([3]; HeLa, protein PSMG1) | fold changes relative to vehicle control ([5]; captured protein FASTKD1, HeLa) | fold changes relative to vehicle control ([6]; protein HADHA, HeLa) | also measured
Nc1nc2c(c(=O)[nH]1)N(C=O)C(CNc1ccc(C(=O)N[C@@H](CCC(=O)O)C(=O)O)cc1)CN2 (stereo partly drawn) [LEU, leucovorin] | 0.85 | 0.94 | 0.9 | 1.04 | 0.85 | 0.9 | – | – | – | – | – | –
Nc1nc2[nH]cc(CCc3ccc(C(=O)N[C@@H](CCC(=O)O)C(=O)O)cc3)c2c(=O)[nH]1 [PTX, pemetrexed] | – | – | – | – | – | – | – | – | – | – | – | fold changes relative to vehicle control [1]: 1; fold changes relative to vehicle control [2]: 0.98; fold changes relative to vehicle control [3]: 0.81; fold changes relative to vehicle control [4]: 1.14; fold changes relative to vehicle control [5]: 0.83; fold changes relative to vehicle control [6]: 0.89
CCCCCCOc1ccc(Cc2cnc(N)nc2N)cc1 [compound 1] | – | – | – | – | – | – | 1.12 | 1.02 | 0.9 | 0.96 | 1 | fold changes relative to vehicle control ([4]; HeLa, protein HSP90B1 (E[…].)): 1.35 fold
CCCCCCOc1cccc(Cc2cnc(N)nc2N)c1 [compound 2] | – | – | – | – | – | – | 1.37 | 1.15 | 0.91 | 1.08 | 1.45 | fold changes relative to vehicle control ([4]; HeLa, protein HSP90B1 (ENDOPLASMIN PRECURSOR.)): 2.51 fold
Nc1nc2cccc(-c3ccccc3)c2n1Cc1ccc(Cl)c(Cl)c1 [compound 3] | – | – | – | – | – | – | 0.93 | 0.93 | 1.03 | 0.98 | 1.07 | fold changes relative to vehicle control ([4]; HeLa, protein HSP90B1 (E[…].)): 0.91 fold
NCCOCCOCC(=O)Nc1nc2ncc(CNc3ccc(C(=O)NC(CCC(=O)O)C(=O)O)cc3)nc2c(=O)[nH]1 (stereo not drawn) [compound 6] | 1.16 | 0.99 | 0.76 | 1.18 | 0.87 | 1.05 | – | – | – | – | – | –
NCCCNc1ccc(C(=O)NC(CCC(=O)O)C(=O)O)cc1 (stereo not drawn) [compound 7] | 1.16 | 1.06 | 0.98 | 0.89 | 0.84 | 0.99 | – | – | – | – | – | –
